Data reported in paper PMC1257591, “In Vitro Inhibition of Human Hepatic and cDNA-Expressed Sulfotransferase Activity with 3-Hydroxybenzo[a]pyrene by Polychlorobiphenylols” (Environmental Health Perspectives, 2005).
Several values for one entry are separate records, joined by “and”; a condition that tells them apart may be missing. Equal entries are not always repeated.

Legend:
SULT1A1*2 = molecular target: T1, SULT1A1*2 (Homo sapiens, UniProt P50225, R213H); assay: Kinetics of 3-OH-BaP sulfonation by expressed SULT1A1*2; type: biochemical; details: expressed SULT1A1*2
T1 construct: purchased PanVera (Madison, WI); host or cells: Sf-9
Text: (§1) The expression of human SULT1A1*1, SULT1A3, SULT1B1, and SULT1E1 in Escherichia coli has been described previously ([Dajani et al. 1998]; [Wang et al. 1998]). We grew E. coli cells containing the respective sulfotransferase genes as described previously ([Falany et al. 1990], [1994]), and prepared 100,000g supernatant fractions for use in inhibition studies and for partial purification of the SULT enzymes. We purchased expressed SULT1A1*2 cytosolic extract from PanVera (Madison, WI) and used it as supplied.
(§2) We determined SULT activity with 3-OH-BaP as substrate by a fluorimetric assay of BaP-3-SO4 product formation, as described previously ([Wang et al. 2004]). […] Duplicate tubes were prepared for each incubation condition. We examined the kinetics of sulfonation in three liver cytosol fractions by systematically varying the concentration of 3-OH-BaP or PAPS. When the variable substrate was 3-OH-BaP, we used 12 concentrations in the range from 0.035 to 2.00 μM, and the concentration of PAPS was kept constant at 10 μM. When we varied PAPS, we used 7 concentrations from 0.157 to 10.0 μM and kept the concentration of 3-OH-BaP constant at 0.100 μM.
We determined the kinetic parameters for 3-OH-BaP sulfonation by partially purified preparations of the cDNA-expressed SULT isozymes under incubation conditions similar to those used for liver cytosol. For SULT1A1*1 and -1A1*2, we used seven substrate concentrations in the range from 5 to 100 nM; for SULT1E1 we used […] 3-OH-BaP concentrations from 15.6 to 1,000 nM; and for SULT1A3 and 1B1 we used seven concentrations of 3-OH-BaP from 0.25 to 5.0 μM.
(§3) We calculated the enzyme kinetic parameters from studies with variable concentrations of 3-OH-BaP using nonlinear regression analysis and GraphPad 4.0 software (GraphPad Software, San Diego, CA). We selected the built-in Michaelis-Menten equation for most analyses. Where we found evidence of 3-OH-BaP substrate inhibition, we fit the data into an equation derived from a two-substrate model ([Zhang et al. 1998]): […]
(§4) This equation denoted the constant for binding of the first substrate (S) molecule as Km and the second substrate molecule as Ki. V1 is the maximum rate for the noninhibitory substrate concentration range, and V2 is the minimum rate in the inhibitory substrate concentration range

SULT1B1 = molecular target: T2, SULT1B1 (Homo sapiens, UniProt O43704); assay: Kinetics of 3-OH-BaP sulfonation by partially purified cDNA-expressed SULT1B1; type: biochemical; details: concentration range up to 5 μM
T2 construct: made in house; host or cells: Escherichia coli
Text: as §1
(§5) The 100,000g supernatant fractions of SULT1A1*1, SULT1A3, SULT1B1, and SULT1E1 were partially purified by chromatographic methods ([Falany et al. 1990], [1994]). […] We analyzed active fractions by SDS-PAGE ([Laemmli 1970]) to assess the purity of each SULT enzyme. We stained the gels with Coomassie R-250 reagent and determined the percentage of protein present as each respective SULT enzyme by scanning densitometry.
(§6) We determined SULT activity with 3-OH-BaP as substrate by a fluorimetric assay of BaP-3-SO4 product formation, as described previously ([Wang et al. 2004]). […]
(§7) We determined the kinetic parameters for 3-OH-BaP sulfonation by partially purified preparations of the cDNA-expressed SULT isozymes under incubation conditions similar to those used for liver cytosol. […]

[1] = molecular target: HL cytosol sulfotransferase (Homo sapiens, UniProt P50225); assay: Kinetics of 3-OH-BaP sulfonation by human liver cytosol (fluorimetric assay of BaP-3-SO4 formation); type: biochemical
Description: F.P. Guengerich (Vanderbilt University) kindly donated the samples of human liver, which were procured from organ donors ([Guengerich 1995]). We prepared liver cytosolic fractions from four livers by standard methods and stored aliquots at −80°C until use ([Wang et al. 2004]). We used three or four of these cytosol fractions in each experiment.
as §2, §3, §4

SULT1E1 [2] = molecular target: T3, SULT1E1 (Homo sapiens, UniProt P49888); assay: Kinetics of 3-OH-BaP sulfonation by partially purified cDNA-expressed SULT1E1; type: biochemical
T3 construct: made in house; host or cells: Escherichia coli
T3 sequence (P49888 1-294): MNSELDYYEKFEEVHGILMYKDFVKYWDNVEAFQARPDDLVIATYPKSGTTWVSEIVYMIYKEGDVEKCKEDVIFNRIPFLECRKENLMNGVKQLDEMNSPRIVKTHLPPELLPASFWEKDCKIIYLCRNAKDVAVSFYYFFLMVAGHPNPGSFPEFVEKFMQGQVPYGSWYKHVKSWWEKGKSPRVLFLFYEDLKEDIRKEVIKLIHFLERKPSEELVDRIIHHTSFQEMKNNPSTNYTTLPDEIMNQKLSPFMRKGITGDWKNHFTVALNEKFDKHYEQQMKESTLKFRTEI
Text: as §1, §5, §6, §7

SULT1A3 [3] = molecular target: T4, SULT1A3 (Homo sapiens, UniProt P0DMM9); assay: Kinetics of 3-OH-BaP sulfonation by partially purified cDNA-expressed SULT1A3; type: biochemical; details: concentration range up to 5 μM
T4 construct: made in house; host or cells: Escherichia coli
Text: as §1, §5, §6, §7

SULT1A1*1 = molecular target: T5, SULT1A1*1 (Homo sapiens, UniProt P50225); assay: Kinetics of 3-OH-BaP sulfonation by partially purified cDNA-expressed SULT1A1*1; type: biochemical
T5 construct: made in house; host or cells: Escherichia coli
Text: as §1, §5, §6, §7

[4] = molecular target: HL cytosol 3-OH-BaP sulfotransferase (Homo sapiens, UniProt P50225); assay: Kinetics of 3-OH-BaP sulfotransferase inhibition by 4′-OH-CB112 in HL cytosol; type: biochemical; details: 0 μM B5, mean ± SD n = 3
Description: To study the type of inhibition produced by OH-PCBs, we used 4′-OH-CB112 (B5) as a model inhibitor. We prepared four sets of assay tubes containing HL cytosol and varying amounts of 3-OH-BaP from 35 to 150 nM: one set (control) contained no 4′-OH-CB112; the other sets contained 0.25 μM, 0.5 μM, or 1.0 μM 4′-OH-CB112.
We calculated the effects of OH-PCBs on 3-OH-BaP SULT activity as percentage inhibition compared with the controls without an inhibitor. We obtained IC50 values by fitting log OH-PCB concentration and percent control activity to a sigmoidal curve. We examined the relationships between IC50 and physicochemical properties of the OH-PCBs by linear correlation analysis. We calculated the inhibitory constant (Ki) from the kinetic studies with 4′-OH-CB112 by means of Dixon plots and plots of Km/Vmax against inhibitor concentration ([Cornish-Bowden 1995]).

SULT1E1 [5] = test system: SULT1E1; parameters: method as in Ma et al. 2003; details: ref Ma et al. 2003; cited from earlier work
SULT1A1 = test system: SULT1A1; parameters: method as in Ma et al. 2003; details: ref Ma et al. 2003; cited from earlier work
SULT1A3 [6] = test system: SULT1A3; parameters: method as in Ma et al. 2003; details: ref Ma et al. 2003; cited from earlier work
[7] = HL 2 cytosol (heterozygous SULT1A1*1/*2)
[8] = HL 3 cytosol (homozygous SULT1A1*2)

Sequence of HL cytosol sulfotransferase (P50225 whole entry): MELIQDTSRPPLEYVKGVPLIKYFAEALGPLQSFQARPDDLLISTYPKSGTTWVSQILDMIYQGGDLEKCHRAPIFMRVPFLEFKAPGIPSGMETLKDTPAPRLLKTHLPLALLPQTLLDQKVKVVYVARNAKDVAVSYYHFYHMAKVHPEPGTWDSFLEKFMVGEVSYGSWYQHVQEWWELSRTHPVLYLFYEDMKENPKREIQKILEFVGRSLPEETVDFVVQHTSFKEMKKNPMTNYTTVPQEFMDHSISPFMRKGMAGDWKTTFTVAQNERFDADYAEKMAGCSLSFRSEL
T1 sequence (P50225 whole entry R213H): as the sequence (P50225 whole entry) above, with R213H counted along it
T4 sequence (P0DMM9 whole entry): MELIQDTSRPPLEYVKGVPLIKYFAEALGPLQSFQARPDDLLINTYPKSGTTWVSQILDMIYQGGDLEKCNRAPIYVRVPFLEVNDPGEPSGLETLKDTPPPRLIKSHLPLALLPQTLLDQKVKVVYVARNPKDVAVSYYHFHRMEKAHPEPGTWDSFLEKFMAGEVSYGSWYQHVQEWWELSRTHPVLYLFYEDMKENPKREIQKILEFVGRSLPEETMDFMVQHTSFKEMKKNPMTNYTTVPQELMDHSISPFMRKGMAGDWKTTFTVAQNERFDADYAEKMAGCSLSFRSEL
Sequence of HL cytosol 3-OH-BaP sulfotransferase (P50225 whole entry): as the sequence (P50225 whole entry) above
T2 sequence (O43704 whole entry): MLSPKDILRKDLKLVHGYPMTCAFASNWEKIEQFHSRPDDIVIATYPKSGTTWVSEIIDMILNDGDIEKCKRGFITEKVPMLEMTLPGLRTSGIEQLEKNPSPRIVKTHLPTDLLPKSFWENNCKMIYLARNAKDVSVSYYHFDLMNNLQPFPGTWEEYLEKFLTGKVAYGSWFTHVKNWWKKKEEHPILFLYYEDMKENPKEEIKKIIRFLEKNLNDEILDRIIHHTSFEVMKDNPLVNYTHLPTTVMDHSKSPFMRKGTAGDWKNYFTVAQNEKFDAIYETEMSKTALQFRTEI

For Oc1ccc2ccc3c4ccccc4cc4ccc1c2c43 [Compound 3-OH-BaP, 3-hydroxybenzo[a]pyrene], the V1 (SULT1A1*2) was 4,400 pmol/min/mg protein, the V2 (SULT1A1*2) was 290 pmol/min/mg protein and the Ki (SULT1A1*2; substrate inhibition) was 0.16 µM. The substrate inhibition (SULT1B1) was “did not exhibit substrate inhibition”, the V1 ([1]; HL 1 cytosol (homozygous SULT1A1*1), maximum rate, noninhibitory substrate range) was 121 pmol/min/mg protein and the V2 ([1]; HL 1 cytosol (homozygous SULT1A1*1), minimum rate, inhibitory substrate range) was 2 pmol/min/mg protein. The V1 [1, 7] was 93.0 pmol/min/mg protein, the V2 [1, 7] was 38.50 pmol/min/mg protein and the V1 [1, 8] was 94 pmol/min/mg protein and 94.4 pmol/min/mg protein. The V2 [1, 8] was 31.0 pmol/min/mg protein, the “3-OH-BaP concentration resulting in a decrease in activity (substrate inhibition)” value ([1]; HL cytosol) was greater than 0.15 µM and the V1 ([1]; HL cytosol, mean ± SD of three livers) was 102 ± 15.8 pmol/min/mg protein. For the same molecule, the “3-OH-BaP concentration showing substrate inhibition” value (SULT1E1 [2]) was greater than 0.15 µM, the substrate inhibition (SULT1A3 [3]) was “did not exhibit substrate inhibition” and the “3-OH-BaP concentration showing substrate inhibition” value (SULT1A1*1) was greater than 0.15 µM. For the same molecule, the “Vmax (3-OH-BaP sulfotransferase activity)” value [4] was 69.1 ± 8.0 B pmol/min/mg protein.
In the case of Oc1ccc2ccc3cccc4ccc1c2c34 [1-hydroxypyrene], the Km (SULT1E1 [5]) is given as 0.021 µM, the Km (SULT1A1) is given as 0.008 µM and the Km (SULT1A3 [6]) is given as 0.8 µM.
